This is an account of results in PubChem BioAssay AID248 (DTP/NCI, 2004).

The assay relates to L1210 leukemia ip in BDF1 mice, survival T/C. Kind of assay: NCI In Vivo Anticancer Drug Screen. Data for tumor model L1210 Leukemia (intraperitoneal) in B6D2F1 (BDF1) mice. The note with it: endpoint: mean survival time, higher = longer survival. The method in brief: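 Value reflects the ratio of survival in compound-treated mice to survival in vehicle-treated controls, with both groups carrying the same transplanted tumor.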

Setting [1] is: dose: 100.0 mg/kg/injection, schedule: Q04DX003 (ip), vehicle: saline with Tween-80.
Where [2] appears, read: dose: 200.0 mg/kg/injection, schedule: Q04DX003 (ip), vehicle: saline with Tween-80.
Where [3] appears, read: dose: 50.0 mg/kg/injection, schedule: Q01DX009 (ip), vehicle: saline with Tween-80.
Where [4] appears, read: dose: 200.0 mg/kg/injection, schedule: Q01DX009 (ip), vehicle: Klucel (hydroxypropylcellulose) (HPC).

Several values for one entry are separate records, joined by “and”; a condition that tells them apart may be missing. Equal values may be shown once. Inconclusive results and toxic doses are left out.

As for `CC(C)Sc1ncnc2nc[nH]c12`, the T/C is 97 % of control (dose: 2.5 mg/kg/injection, schedule: Q01DX009 (sc), vehicle: steriod suspending solution); 100 % of control (dose: 5.0 mg/kg/injection, schedule: Q01DX009 (sc), vehicle: steriod suspending solution); 96 % of control (dose: 10.0 mg/kg/injection, schedule: Q01DX009 (sc), vehicle: steriod suspending solution); 102 % of control (dose: 18.0 mg/kg/injection, schedule: Q01DX009 (ip), vehicle: saline with Tween-80); 104 % of control (dose: 27.0 mg/kg/injection, schedule: Q01DX009 (ip), vehicle: saline with Tween-80); 110 % of control (dose: 40.0 mg/kg/injection, schedule: Q01DX009 (ip), vehicle: saline with Tween-80). For the same molecule, the T/C was 109 % of control (dose: 60.0 mg/kg/injection, schedule: Q01DX009 (ip), vehicle: saline with Tween-80); 103 % of control (dose: 75.0 mg/kg/injection, schedule: Q01DX001 (sc), vehicle: steriod suspending solution); 166 % of control (dose: 75.0 mg/kg/injection, schedule: Q01DX009 (sc), vehicle: steriod suspending solution); 160 % of control (dose: 150.0 mg/kg/injection, schedule: Q01DX009 (sc), vehicle: steriod suspending solution).
For the molecule `O=C(Nc1ccccc1)Oc1c(Cl)cc(Cl)cc1Cl`, the T/C is 97 % of control (dose: 0.78 mg/kg/injection, schedule: Q04DX002 (ip), vehicle: Klucel (hydroxypropylcellulose) (HPC)); 112 % of control (dose: 1.56 mg/kg/injection, schedule: Q04DX002 (ip), vehicle: Klucel (hydroxypropylcellulose) (HPC)); 94 % of control (dose: 3.13 mg/kg/injection, schedule: Q04DX002 (ip), vehicle: Klucel (hydroxypropylcellulose) (HPC)); 92 % of control (dose: 6.25 mg/kg/injection, schedule: Q04DX002 (ip), vehicle: Klucel (hydroxypropylcellulose) (HPC)); 110 % of control (dose: 12.5 mg/kg/injection, schedule: Q04DX002 (ip), vehicle: Klucel (hydroxypropylcellulose) (HPC)); 95 % of control (dose: 25.0 mg/kg/injection, schedule: Q04DX002 (ip), vehicle: Klucel (hydroxypropylcellulose) (HPC)).
On to `CC/C(=N/OC(=O)N(CC)CC)c1ccccc1`, for which the T/C (dose: 100.0 mg/kg/injection, schedule: Q01DX001 (ip), vehicle: other) is 96 % of control; the T/C (dose: 200.0 mg/kg/injection, schedule: Q01DX001 (ip), vehicle: other) was 91 % of control; the T/C (dose: 400.0 mg/kg/injection, schedule: Q01DX001 (ip), vehicle: other) was 93 % of control.
Consider `COc1ccc([P+](Cc2ccccc2)(c2ccccc2)c2ccc3ccccc3c2)cc1` (stereo unspecified), for which the T/C runs as follows: (dose: 75.0 mg/kg/injection, schedule: Q01DX001 (ip), vehicle: carboxymethylcellulose (CMC)) 91 % of control; (dose: 150.0 mg/kg/injection, schedule: Q01DX001 (ip), vehicle: carboxymethylcellulose (CMC)) 96 % of control.
Regarding `Cc1coc(NS(=O)(=O)c2ccc(N=Nc3cc(N=Nc4ccccc4)c(N)nc3N)cc2)c1C`, the T/C (dose: 100.0 mg/kg/injection, schedule: Q01DX001 (ip), vehicle: carboxymethylcellulose (CMC)) was 94 % of control and the T/C (dose: 200.0 mg/kg/injection, schedule: Q01DX001 (ip), vehicle: carboxymethylcellulose (CMC)) was 105 % of control.
As for `Cc1ccc(S(=O)(=O)OCC2C3C=CC(c4ccccc43)C2COS(=O)(=O)c2ccc(C)cc2)cc1` (stereo unspecified), the T/C is, setting by setting: (dose: 75.0 mg/kg/injection, schedule: Q01DX009 (ip), vehicle: saline with Tween-80) 96 % of control; (dose: 150.0 mg/kg/injection, schedule: Q01DX009 (ip), vehicle: saline with Tween-80) 91 % of control; (dose: 300.0 mg/kg/injection, schedule: Q01DX009 (ip), vehicle: saline with Tween-80) 90 % of control.
Regarding `Nc1nc(N)c(-c2ccc(Cl)c(Cl)c2)c(CO)n1`, the T/C under setting [1] was 98 % of control; the T/C under setting [2] is 107 % of control; the T/C (dose: 400.0 mg/kg/injection, schedule: Q04DX003 (ip), vehicle: saline with Tween-80) was 117 % of control.
With `CCC1=C2C(=O)c3ccccc3C2=C(C)S(=O)(=O)O1`, the T/C is 95 % of control (dose: 12.5 mg/kg/injection, schedule: Q01DX009 (ip), vehicle: saline with Tween-80); 108 % of control (dose: 25.0 mg/kg/injection, schedule: Q01DX009 (ip), vehicle: saline with Tween-80); 94 % of control and 111 % of control under setting [3]; 96 % of control under setting [1]; 96 % of control under setting [2].
Consider `CN(Cc1cnc2nc(N)nc(N)c2n1)c1ccc(C(=O)NC(CCC(=O)O)C(=O)O)c(Cl)c1Cl` (stereo unspecified), for which the T/C (dose: 12.5 mg/kg/injection, schedule: Q01DX009 (ip), vehicle: sodium bicarbonate) is 157 % of control; the T/C (dose: 25.0 mg/kg/injection, schedule: Q01DX009 (ip), vehicle: sodium bicarbonate) is 157 % of control; the T/C (dose: 50.0 mg/kg/injection, schedule: Q01DX009 (ip), vehicle: sodium bicarbonate) was 155 % of control.
On to `ClCCN(CCN(CCCl)c1ccccc1)c1ccccc1`, for which the T/C is, setting by setting: (dose: 100.0 mg/kg/injection, schedule: Q01DX009 (ip), vehicle: Klucel (hydroxypropylcellulose) (HPC)) 113 % of control; under setting [4], 108 % of control; (dose: 400.0 mg/kg/injection, schedule: Q01DX009 (ip), vehicle: Klucel (hydroxypropylcellulose) (HPC)) 115 % of control.
For `CCCCCCCCCCCCCCCCC`, the T/C is, setting by setting: (dose: 100.0 mg/kg/injection, schedule: Q01DX001 (ip), vehicle: saline with Tween-80) 113 % of control; (dose: 200.0 mg/kg/injection, schedule: Q01DX001 (ip), vehicle: saline with Tween-80) 108 % of control; (dose: 400.0 mg/kg/injection, schedule: Q01DX001 (ip), vehicle: saline with Tween-80) 97 % of control.
As to `Cc1ccc(NC(=O)OC/C=C/c2ccccc2)cc1NC(=O)OC/C=C/c1ccccc1`, the T/C under setting [4] is 93 % of control.
`CCCCc1c(C)c2c(O)cc(C)cc2oc1=O`: the T/C by setting is: (dose: 100.0 mg/kg/injection, schedule: Q01DX001 (ip), vehicle: acetone) 92 % of control; (dose: 200.0 mg/kg/injection, schedule: Q01DX001 (ip), vehicle: acetone) 95 % of control; (dose: 400.0 mg/kg/injection, schedule: Q01DX001 (ip), vehicle: acetone) 92 % of control.
With `COc1cc(N)ccc1C(=O)NC(CCC(=O)O)C(=O)O` (stereo unspecified), the T/C was 103 % of control (dose: 100.0 mg/kg/injection, schedule: Q01DX001 (ip), vehicle: Klucel (hydroxypropylcellulose) (HPC)); 100 % of control (dose: 200.0 mg/kg/injection, schedule: Q01DX001 (ip), vehicle: Klucel (hydroxypropylcellulose) (HPC)); 103 % of control (dose: 400.0 mg/kg/injection, schedule: Q01DX001 (ip), vehicle: Klucel (hydroxypropylcellulose) (HPC)).
Regarding `CCCCCCCCCCCCCCCC(=O)N(CCCN)CCCN(CCCN)C(=O)CCCCCCCCCCCCCCC`, the T/C (dose: 100.0 mg/kg/injection, schedule: Q04DX003 (ip), vehicle: saline) is 98 % of control.
Consider `O=C(CCN1CC=C(c2ccccc2)CC1)c1ccc(Oc2ccccc2)cc1`, for which the T/C by setting is: under setting [3], 100 % of control; (dose: 100.0 mg/kg/injection, schedule: Q01DX009 (ip), vehicle: saline with Tween-80) 96 % of control; under setting [1], 96 % of control; (dose: 200.0 mg/kg/injection, schedule: Q01DX009 (ip), vehicle: saline with Tween-80) 105 % of control; under setting [2], 94 % of control.
With `CC1(C)OC(=O)CC1c1ccc(Cl)cc1` (stereo unspecified), the T/C by setting is: (dose: 100.0 mg/kg/injection, schedule: Q01DX001 (ip), vehicle: saline) 98 % of control; (dose: 200.0 mg/kg/injection, schedule: Q01DX001 (ip), vehicle: saline) 93 % of control; (dose: 400.0 mg/kg/injection, schedule: Q01DX001 (ip), vehicle: saline) 106 % of control.
Regarding `NC(=S)N/N=C/c1c(Cl)n(C(=O)c2ccccc2)c2ccccc12`, the T/C was 98 % of control (dose: 50.0 mg/kg/injection, schedule: Q04DX002 (ip), vehicle: Klucel (hydroxypropylcellulose) (HPC)); 87 % of control (dose: 100.0 mg/kg/injection, schedule: Q04DX002 (ip), vehicle: Klucel (hydroxypropylcellulose) (HPC)); 87 % of control (dose: 200.0 mg/kg/injection, schedule: Q04DX002 (ip), vehicle: Klucel (hydroxypropylcellulose) (HPC)).
With `Cc1cc(F)ccc1[As](=O)(O)O`, where the note is “dose: 25.0 mg/kg/injection, schedule: Q04DX003 (ip), vehicle: saline with Tween-80”, the T/C was 101 % of control.
As to `COc1ccc(N=Nc2sc(N)nc2-c2ccc(Cl)cc2)cc1`, the T/C runs as follows: (dose: 12.5 mg/kg/injection, schedule: Q01DX001 (ip), vehicle: saline with Tween-80) 93 % of control; (dose: 25.0 mg/kg/injection, schedule: Q01DX001 (ip), vehicle: saline with Tween-80) 90 % of control; (dose: 50.0 mg/kg/injection, schedule: Q01DX001 (ip), vehicle: saline with Tween-80) 101 % of control.
